Here are results for one compound from article PMC13453992, “Comparison of ex vivo placenta perfusion and in vitro BeWo b30 cell models for assessing transfer of developmental and reproductive toxic compounds” (Archives of Toxicology, 2026).

This data set in a line: Fraction unbound in placental perfusion buffer by Rapid Equilibrium Dialysis. The note with it: placenta perfusion buffer with albumin; RED 4 hours at 37 °C. It is filed as in vitro ADME. As to the method:
Free drug concentrations in perfusion buffer were determined using Rapid Equilibrium Dialysis (RED) single use plates (ThermoScientific, Rockford, USA) according to the manufacturer’s instructions. In short, placental perfusion buffer samples from multiple timepoints were loaded on one side of the RED and clean placenta perfusion buffer without albumin was added to the other side. This was incubated on a ThermoMixer C (Eppendorf Nederland B.V., Nijmegen, The Netherlands) at 250 rpm for 4 hours at 37 °C. The average from all measurements was taken to determine the average fraction unbound for each ex vivo placenta perfusion experiment.
(In equilibrium dialysis free small molecules cross a membrane that holds back macromolecules.)

SMILES strings stand for the structures.

`Cc1cc(=O)n(-c2ccccc2)n1C` [Antipyrine, antipyrine]: the Fraction unbound worked out at 95 ± 2%.
